Results reported in patent US20090099192A1, “Substituted 1H-pyrrole-2,5-diones” (Bayer CropScience AG, priority 2004, published 2009).

Legend:
[1] = logP determination by HPLC on reversed-phase column (C 18), EEC Directive 79/831 Annex V.A8; format: physicochemical; conditions: reversed-phase C 18, 43° C., acid range (0.1% aqueous phosphoric acid, acetonitrile), marked a)
Protocol: a) The logP values given in table 1 were determined in accordance with EEC Directive 79/831 Annex V.A8 by HPLC (High Performance Liquid Chromatography) on a reversed-phase column (C 18). Temperature: 43° C. (a) Mobile phases for the determination in the acid range: 0.1% aqueous phosphoric acid, acetonitrile; linear gradient from 10% acetonitrile to 90% acetonitrile—corresponding measurement results are marked a) in table 1. Calibration was carried out using unbranched alkan-2-ones (having 3 to 16 carbon atoms) with known logP values (determination of the logP values by the retention times using linear interpolation between two successive alkanones).

[2] = system: larvae of the mustard beetle (Phaedon cochleariae); experiment: Phaedon test (spray treatment); format: in vivo; conditions: for Kill rate in % after 7 d: 500 g/ha, spray, Brassica pekinensis disks
Protocol: (§1) [table] To produce a suitable preparation of active compound, 1 part by weight of active compound is mixed with the stated amounts of solvents and emulsifier, and the concentrate is diluted with emulsifier-containing water to the desired concentration. Disks of Chinese cabbage (Brassica pekinensis) are sprayed with an active compound preparation of the desired concentration and, after drying, populated with larvae of the mustard beetle (Phaedon cochleariae). After the desired period of time, the effect in % is determined. 100% means that all beetle larvae have been killed; 0% means that none of the beetle larvae have been killed.

[3] = system: caterpillars of the army worm (Spodoptera frugiperda); experiment: Spodoptera frugiperda test (corn leaf disks sprayed); format: in vivo; conditions: for Kill rate in % after 7 d: 500 g/ha, spray, Zea mays leaf disks
Protocol: as §1, with “corn leaves (Zea mays)” for “Chinese cabbage (Brassica pekinensis)”, “caterpillars” for “larvae”, “army worm (Spodoptera frugiperda).” for “mustard beetle (Phaedon cochleariae).”, “caterpillars” for “beetle larvae”

[4] = system: larvae of the mustard beetle (Phaedon cochleariae); experiment: Phaedon larvae test (cabbage leaves dipped); format: in vivo; conditions: for Kill rate in % after 7 d: leaf dip, Brassica oleracea
Protocol: [table] To produce a suitable preparation of active compound, 1 part by weight of active compound is mixed with the stated amount of solvent and the stated amount of emulsifier, and the concentrate is diluted with water to the desired concentration. Cabbage leaves (Brassica oleracea) are treated by being dipped into the active compound preparation of the desired concentration and populated with larvae of the mustard beetle (Phaedon cochleariae) while the leaves are still moist. After the desired period of time, the kill in % is determined. 100% means that all beetle larvae have been killed; 0% means that none of the beetle larvae have been killed.

Row | SMILES | logP [1] | also measured
1 | O=C1C(O)=C(c2c(F)cccc2F)C(=O)N1C1CCC(C(F)(F)F)CC1 (centres unmarked) [Example 209] |  | activity in the Phaedon larvae test [4]: good activity; Kill rate in % after 7 d ([4]; 500 ppm): 100%
2 | CC1(C)CC(N2C(=O)C(O)=C(c3ccccc3Cl)C2=O)CC(C)(C)C1 [Example 200] |  | activity in the Phaedon test (spray treatment) [2]: good activity; Kill rate in % after 7 d [2]: 100%
3 | CC1CCCC(N2C(=O)C(O)=C(c3ccccc3Br)C2=O)C1 (centres unmarked) [Example 197] | logP = 3.61^a) | activity in the Phaedon test (spray treatment) [2]: good activity; Kill rate in % after 7 d [2]: 100%; activity in the Spodoptera frugiperda test (spray) [3]: good activity; Kill rate in % after 7 d [3]: 100%
4 | Cc1cc(C)c(C2=C(O)C(=O)N(Cc3ccccc3)C2=O)c(C)c1 [Example 5] |  | activity in the Phaedon larvae test [4]: good activity; Kill rate in % after 7 d ([4]; 1000 ppm): 100%
5 | CC1CC(N2C(=O)C(O)=C(c3ccccc3Cl)C2=O)CC(C)(C)C1 (centres unmarked) [Example 199] | logP = 4.18^a) | activity in the Phaedon test (spray treatment) [2]: good activity; Kill rate in % after 7 d [2]: 100%
6 | O=C1C(OCc2ccc(Cl)cc2)=C(c2ccccc2Cl)C(=O)N1C1CCCC(C(F)(F)F)C1 (centres unmarked) [Example 203] |  | activity in the Phaedon test (spray treatment) [2]: good activity; Kill rate in % after 7 d [2]: 100%; activity in the Spodoptera frugiperda test (spray) [3]: good activity; Kill rate in % after 7 d [3]: 100%
7 | Cc1ccc(-c2ccc(Cl)cc2)cc1C1=C(O)C(=O)N(C(C)C)C1=O [Example 122] | logP = 4.08^a) | 
8 | O=C1C(O)=C(c2cc(Cl)cc(Cl)c2)C(=O)N1Cc1c(F)cccc1F [Example 109] | logP = 3.20^a) | 
9 | O=C1C(O)=C(c2ccccc2Cl)C(=O)N1C1CCOCC1 [Example 154] | logP = 1.94^a) | 
10 | Cc1ccc(-c2ccc(Cl)cc2)cc1C1=C(O)C(=O)N(Cc2ccc(OC(F)(F)F)cc2)C1=O [Example 134] | logP = 4.84^a) | 
11 | O=C1C(O)=C(c2ccccc2F)C(=O)N1c1cc(Cl)cc(Cl)c1 [Example 73] | logP = 3.20^a) | 
12 | O=C1C(O)=C(c2ccccc2Cl)C(=O)N1Cc1cc(Cl)cc(Cl)c1 [Example 111] | logP = 3.67^a) | 
13 | CC(C)(C)OC(=O)N1CCCC(N2C(=O)C(O)=C(c3ccccc3Cl)C2=O)C1 (centres unmarked) [Example 155] | logP = 3.18^a) | 
14 | Cc1ccc(-c2ccc(Cl)cc2)cc1C1=C(O)C(=O)N(C(C)(C)C)C1=O [Example 137] | logP = 4.51^a) | 
15 | Cc1ccccc1C1=C(O)C(=O)N(C2CCCC(C(F)(F)F)C2)C1=O (centres unmarked) [Example 188] | logP = 3.11^a) | activity in the Phaedon test (spray treatment) [2]: good activity; Kill rate in % after 7 d [2]: 100%; activity in the Spodoptera frugiperda test (spray) [3]: good activity; Kill rate in % after 7 d [3]: 100%
16 | O=C1C(O)=C(c2cc(Cl)cc(Cl)c2)C(=O)N1c1ccc(OC(F)(F)F)cc1 [Example 57] | logP = 3.56^a) | 
17 | O=C1C(O)=C(c2ccc(Cl)cc2)C(=O)N1Cc1cc(Cl)cc(Cl)c1 [Example 115] | logP = 4.48^a) | 
18 | O=C1C(O)=C(c2cc(F)ccc2Br)C(=O)N1C1CCCC(C(F)(F)F)C1 (centres unmarked) [Example 198] | logP = 3.46^a) | activity in the Phaedon test (spray treatment) [2]: good activity; Kill rate in % after 7 d [2]: 100%
19 | O=C1C(O)=C(c2ccc(Cl)cc2)C(=O)N1c1ccc(C(F)(F)F)cc1 [Example 70] | logP = 3.70^a) | 
20 | N#Cc1ccc(C2=C(O)C(=O)N(Cc3cc(Cl)cc(Cl)c3)C2=O)cc1 [Example 114] | logP = 2.94^a) | 
21 | CCOC(=O)C1(N2C(=O)C(O)=C(c3ccccc3Cl)C2=O)CCCCC1 [Example 167] | logP = 3.40^a) | 
22 | O=C1C(O)=C(c2c(F)cccc2F)C(=O)N1c1ccc(C(F)(F)F)cc1 [Example 66] | logP = 3.48^a) | 
23 | O=C1C(O)=C(c2ccccc2F)C(=O)N1Cc1ccc(OC(F)(F)F)cc1 [Example 83] | logP = 3.45^a) | 
24 | O=C1C(O)=C(c2ccccc2Cl)C(=O)N1c1ccccc1 [Example 24] | logP = 2.43^a) | 

Now from value to compound, other results behind:

Row | logP [1] | SMILES | also measured
25 | logP = 2.53^a) | O=C1C(O)=C(c2ccc(Cl)cc2Br)C(=O)N1C1CCCC(C(F)(F)F)C1 (centres unmarked) [Example 186] | activity in the Phaedon test (spray treatment) [2]: good activity; Kill rate in % after 7 d [2]: 100%; activity in the Spodoptera frugiperda test (spray) [3]: good activity; Kill rate in % after 7 d [3]: 100%
26 | logP = 2.47^a) | O=C1C(O)=C(c2ccc(Br)cc2Cl)C(=O)N1C1CCCC(C(F)(F)F)C1 (centres unmarked) [Example 187] | activity in the Phaedon test (spray treatment) [2]: good activity; Kill rate in % after 7 d [2]: 100%
27 | logP = 3.77^a) | O=C1C(O)=C(c2ccccc2OC(F)(F)F)C(=O)N1C1CCCC(C(F)(F)F)C1 (centres unmarked) [Example 190] | activity in the Phaedon test (spray treatment) [2]: good activity; Kill rate in % after 7 d [2]: 100%; activity in the Spodoptera frugiperda test (spray) [3]: good activity; Kill rate in % after 7 d [3]: 83%
28 | logP = 3.01^a) | O=C1C(O)=C(c2ccccc2[N+](=O)[O-])C(=O)N1C1CCCC(C(F)(F)F)C1 (centres unmarked) [Example 194] | activity in the Phaedon test (spray treatment) [2]: good activity; Kill rate in % after 7 d [2]: 100%
29 | logP = 4.89^a) | Cc1ccc(S(=O)(=O)OC2=C(c3ccccc3Cl)C(=O)N(C3CCCC(C(F)(F)F)C3)C2=O)cc1 (centres unmarked) [Example 208] | activity in the Phaedon test (spray treatment) [2]: good activity; Kill rate in % after 7 d [2]: 100%
30 | logP = 5.01^a) | O=C1C(OCc2ccccc2)=C(c2ccccc2Cl)C(=O)N1C1CCCC(C(F)(F)F)C1 (centres unmarked) [Example 204] | activity in the Phaedon test (spray treatment) [2]: good activity; Kill rate in % after 7 d [2]: 100%; activity in the Spodoptera frugiperda test (spray) [3]: good activity; Kill rate in % after 7 d [3]: 100%
31 | logP = 2.85^a) | N#Cc1ccc(C2=C(O)C(=O)N(Cc3ccc(OC(F)(F)F)cc3)C2=O)cc1 [Example 87] | 
32 | logP = 4.27^a) | Cc1ccc(C2=C(O)C(=O)N(Cc3ccc(OC(F)(F)F)cc3)C2=O)cc1 [Example 92] | 
33 | logP = 4.84^a) | Cc1ccc(-c2ccc(Cl)cc2)cc1C1=C(O)C(=O)N(C(C)c2cccc(Cl)c2)C1=O (racemic) [Example 141] | 
34 | logP = 3.64^a) | O=C1C(O)=C(c2cccc(OC(F)(F)F)c2)C(=O)N1Cc1ccccc1F [Example 101] | 
35 | logP = 4.12^a) | O=C1C(O)=C(c2cc(Cl)cc(Cl)c2)C(=O)N1Cc1ccc(OC(F)(F)F)cc1 [Example 91] | 
36 | logP = 3.27^a) | O=C1C(O)=C(c2ccccc2Cl)C(=O)N1c1ccc(OC(F)(F)F)cc1 [Example 52] | 
37 | logP = 4.99^a) | Cc1ccc(-c2ccc(Cl)cc2)cc1C1=C(O)C(=O)N(C(C)(C)c2cccc(Cl)c2)C1=O [Example 143] | 
38 | logP = 3.75^a) | O=C1C(O)=C(c2ccc(C(F)(F)F)cc2)C(=O)N1c1cc(Cl)cc(Cl)c1 [Example 79] | 
39 | logP = 4.56^a) | CC1CCCC(N2C(=O)C(O)=C(c3cccc(C(F)(F)F)c3)C2=O)C1 (centres unmarked) [Example 175] | 
40 | logP = 3.57^a) | CC1CCCC(N2C(=O)C(O)=C(c3ccccc3Cl)C2=O)C1 (centres unmarked) [Example 162] | 
41 | logP = 5.50^a) | CCOC(=O)C1(N2C(=O)C(OC(=O)C(C)(C)C)=C(c3ccccc3Cl)C2=O)CCCCC1 [Example 169] | 
42 | logP = 3.17^a) | O=C1C(O)=C(c2ccccc2Cl)C(=O)N1C1CCCCC1 [Example 22] | 
43 | logP = 5.87^a) | Cc1cc(C)c(C2=C(OC(=O)C(C)(C)C(C)C)C(=O)N(C(C)C)C2=O)c(C)c1 [Example 20] | 
44 | logP = 3.56^a) | O=C1C(O)=C(c2ccccc2F)C(=O)N1Cc1cc(Cl)cc(Cl)c1 [Example 110] | 
45 | logP = 4.30^a) | O=C1C(O)=C(c2cccc(OC(F)(F)F)c2)C(=O)N1Cc1ccc(OC(F)(F)F)cc1 [Example 90] | 
46 | logP = 3.35^a) | O=C1C(O)=C(c2ccc(C(F)(F)F)cc2)C(=O)N1c1ccc(Cl)cc1 [Example 64] | 
47 | logP = 5.39^a) | CC(C)(C)C(=O)OC1=C(c2ccccc2Cl)C(=O)N(C2CCCCC2)C1=O [Example 23] | 
48 | logP = 2.49^a) | O=C1C(O)=C(c2c(F)cccc2F)C(=O)N1Cc1ccccc1F [Example 94] | 
49 | logP = 3.32^a) | COc1ccccc1C1=C(O)C(=O)N(C2CCCC(C(F)(F)F)C2)C1=O (centres unmarked) [Example 189] | activity in the Phaedon test (spray treatment) [2]: good activity; Kill rate in % after 7 d [2]: 83%
50 | logP = 4.27^a) | O=C1C(O)=C(c2cccc(C(F)(F)F)c2)C(=O)N1Cc1cc(Cl)cc(Cl)c1 [Example 112] | 
51 | logP = 3.56^a) | O=C1C(O)=C(c2ccc(Cl)cc2)C(=O)N1Cc1ccccc1F [Example 99] | 
